Experimental data: ChEMBL document CHEMBL4411307, “N,N'-diaryl-bishydrazones in a biphenyl platform: Broad spectrum antifungal agents” (Eur J Med Chem, 2019)
≈ marks a conversion by molar mass, not a printed value. Calls of active or inactive are those of the source. The calls are words filed in the database; no cut-off is given here.

What was measured:
Listeria monocytogenes = test: Antibacterial activity against Listeria monocytogenes; type: functional, organism-based
Staphylococcus aureus = test: Antibacterial activity against methicillin-resistant Staphylococcus aureus; type: functional, organism-based
Enterococcus = test: Antibacterial activity against vancomycin-resistant Enterococcus; type: functional, organism-based
Candida albicans [1] = test: Antifungal activity against fluconazole/ITC-resistant Candida albicans ATCC 10231 measured after 48 hrs by CLSI M27-A3 protocol based method; type: functional; conditions: ATCC 10231, 48 h
Candida albicans [2] = test: Antifungal activity against fluconazole/ITC-resistant Candida albicans ATCC 64124 measured after 48 hrs by CLSI M27-A3 protocol based method; type: functional; conditions: ATCC 64124, 48 h
Candida albicans [3] = test: Antifungal activity against fluconazole/ITC-susceptible Candida albicans ATCC MYA-2876 measured after 48 hrs by CLSI M27-A3 protocol based method; type: functional; conditions: ATCC MYA-2876, 48 h
Candida albicans [4] = test: Antifungal activity against fluconazole/ITC-resistant Candida albicans ATCC 90819 measured after 48 hrs by CLSI M27-A3 protocol based method; type: functional; conditions: ATCC 90819, 48 h
Candida albicans [5] = test: Antifungal activity against fluconazole/ITC-susceptible Candida albicans ATCC MYA-2310 measured after 48 hrs by CLSI M27-A3 protocol based method; type: functional; conditions: ATCC MYA-2310, 48 h
Candida albicans [6] = test: Antifungal activity against fluconazole/ITC-resistant Candida albicans ATCC MYA-1237 measured after 48 hrs by CLSI M27-A3 protocol based method; type: functional; conditions: ATCC MYA-1237, 48 h
Candida albicans [7] = test: Antifungal activity against fluconazole/ITC-resistant Candida albicans ATCC MYA-1003 measured after 48 hrs by CLSI M27-A3 protocol based method; type: functional; conditions: ATCC MYA-1003, 48 h
Nakaseomyces glabratus = test: Antifungal activity against Candida glabrata ATCC 2001 measured after 48 hrs by CLSI M27-A3 protocol based method; type: functional; conditions: CBS 138, 48 h
Pichia kudriavzevii = test: Antifungal activity against Candida krusei ATCC 6258 measured after 48 hrs by CLSI M27-A3 protocol based method; type: functional; conditions: ATCC 6258, 48 h
Candida parapsilosis = test: Antifungal activity against Candida parapsilosis ATCC 22019 measured after 48 hrs by CLSI M27-A3 protocol based method; type: functional; conditions: Lodderomyces parapsilosis, ATCC 22019, 48 h
Aspergillus flavus = test: Antifungal activity against Aspergillus flavus ATCC MYA-3631 measured after 48 hrs by CLSI M38-A2 protocol based method; type: functional; conditions: ATCC MYA-3631, 48 h
Aspergillus nidulans = test: Antifungal activity against Aspergillus nidulans ATCC 38163 measured after 48 hrs by CLSI M38-A2 protocol based method; type: functional; conditions: ATCC 38163, 48 h
Aspergillus terreus = test: Antifungal activity against Aspergillus terreus ATCC MYA-3633 measured after 48 hrs by CLSI M38-A2 protocol based method; type: functional; conditions: ATCC MYA-3633, 48 h
A549 = test: Cytotoxicity against human A549 cells after 24 hrs by resazurin based assay; type: cell-based; conditions: a549, 24 h
BEAS-2B = test: Cytotoxicity against human BEAS2B cells after 24 hrs by resazurin based assay; type: cell-based
[8] = Selectivity index, ratio of CC50 for human A549 cells to MIC for fluconazole/ITC-resistant Candida albicans ATCC 10231; type: toxicity; conditions: read-out: Selectivity Index
[9] = Selectivity index, ratio of CC50 for human A549 cells to MIC for fluconazole/ITC-resistant Candida albicans ATCC 64124; type: toxicity; conditions: read-out: Selectivity Index
[10] = Selectivity index, ratio of CC50 for human A549 cells to MIC for fluconazole/ITC-susceptible Candida albicans ATCC MYA-2876; type: toxicity; conditions: read-out: Selectivity Index
[11] = Selectivity index, ratio of CC50 for human A549 cells to MIC for fluconazole/ITC-resistant Candida albicans ATCC 90819; type: toxicity; conditions: read-out: Selectivity Index
[12] = Selectivity index, ratio of CC50 for human A549 cells to MIC for fluconazole/ITC-susceptible Candida albicans ATCC MYA-2310; type: toxicity; conditions: read-out: Selectivity Index
[13] = Selectivity index, ratio of CC50 for human A549 cells to MIC for fluconazole/ITC-resistant Candida albicans ATCC MYA-1237; type: toxicity; conditions: read-out: Selectivity Index
[14] = Selectivity index, ratio of CC50 for human A549 cells to MIC for fluconazole/ITC-resistant Candida albicans ATCC MYA-1003; type: toxicity; conditions: read-out: Selectivity Index
[15] = Selectivity index, ratio of CC50 for human A549 cells to MIC for Candida glabrata ATCC 2001; type: toxicity; conditions: read-out: Selectivity Index
[16] = Selectivity index, ratio of CC50 for human A549 cells to MIC for Candida krusei ATCC 6258; type: toxicity; conditions: read-out: Selectivity Index
[17] = Selectivity index, ratio of CC50 for human A549 cells to MIC for Candida parapsilosis ATCC 22019; type: toxicity; conditions: read-out: Selectivity Index
[18] = Selectivity index, ratio of CC50 for human A549 cells to MIC for Aspergillus nidulans ATCC 38163; type: toxicity; conditions: read-out: Selectivity Index
[19] = Selectivity index, ratio of CC50 for human A549 cells to MIC for Aspergillus terreus ATCC MYA-3633; type: toxicity; conditions: read-out: Selectivity Index
[20] = Hemolytic activity in mouse RBC at […] after 1 hr relative to control; type: ADME, cell-based, Erythrocyte; conditions: red blood cells (erythrocytes), read-out: Activity; further: tested at 0.48 µg/mL
[21] = Hemolytic activity in mouse RBC at […] ug/ml after 1 hr relative to control; type: ADME, cell-based, Erythrocyte; conditions: red blood cells (erythrocytes), read-out: Activity; for hemolysis at 1 h, 15.6 ug/ml: at 15.6 µg/mL
[22] = Hemolytic activity in mouse RBC at 1.95 ug/ml after 1 hr relative to control; type: ADME, cell-based, Erythrocyte; conditions: red blood cells (erythrocytes), read-out: Activity
[23] = Hemolytic activity in mouse RBC at 3.9 ug/ml after 1 hr relative to control; type: ADME, cell-based, Erythrocyte; conditions: red blood cells (erythrocytes), read-out: Activity
[24] = Hemolytic activity in mouse RBC at 7.8 ug/ml after 1 hr relative to control; type: ADME, cell-based, Erythrocyte; conditions: red blood cells (erythrocytes), read-out: Activity
[25] = Hemolytic activity in mouse RBC at 31.3 ug/ml after 1 hr relative to control; type: ADME, cell-based, Erythrocyte; conditions: red blood cells (erythrocytes), read-out: Activity
[26] = Hemolytic activity in mouse RBC at 62.5 ug/ml after 1 hr relative to control; type: ADME, cell-based, Erythrocyte; conditions: red blood cells (erythrocytes), read-out: Activity

SMILES | MIC (Candida albicans [1]) [µg/mL] | MIC (Candida albicans [2]) [µg/mL] | MIC (Candida albicans [3]) [µg/mL] | MIC (Candida albicans [4]) [µg/mL] | MIC (Candida albicans [5]) [µg/mL] | MIC (Candida albicans [6]) [µg/mL] | MIC (Candida albicans [7]) [µg/mL] | MIC (Nakaseomyces glabratus) [µg/mL] | MIC (Pichia kudriavzevii) [µg/mL] | MIC (Candida parapsilosis) [µg/mL] | MIC (Aspergillus flavus) [µg/mL] | MIC (Aspergillus nidulans) [µg/mL] | MIC (Aspergillus terreus) [µg/mL] | CC50 (A549) [µg/mL] | CC50 (BEAS-2B) [µg/mL] | hemolysis at 1 h, […] [20] [%] | hemolysis at 1 h, 15.6 ug/ml [21] [%] | hemolysis at 1 h, 0.975 ug/ml [21] [%] | hemolysis at 1 h, 1.95 ug/ml [22] [%] | hemolysis at 1 h, 3.9 ug/ml [23] [%] | further results
Fc1cccc(N/N=C/c2ccc(-c3cccc(/C=N/Nc4cccc(F)c4)c3)cc2)c1 | 1.95 (≈ 4.57 µM) | > 31.3 | 7.8 (≈ 18.3 µM) | 15.6 (≈ 36.6 µM) | > 31.3 | 15.6 (≈ 36.6 µM) | 7.8 (≈ 18.3 µM) | > 31.3 | 1.95 (≈ 4.57 µM) | 31.3 (≈ 73.4 µM) | 3.9 (≈ 9.14 µM) | 7.8 (≈ 18.3 µM) | > 31.3 | 11.7 (≈ 27.4 µM) | 11.8 (≈ 27.7 µM) | 0 | 13.9 | 4.6 | 0.6 | 2.5 | Activity (Listeria monocytogenes): inactive; Activity (Staphylococcus aureus): inactive; Activity (Enterococcus): inactive; selectivity ratio [8]: 6; selectivity ratio [9]: 0.4; selectivity ratio [10]: 1.5; selectivity ratio [11]: 0.8; selectivity ratio [12]: 0.4; selectivity ratio [13]: 0.8; selectivity ratio [14]: 1.5; selectivity ratio [15]: 0.4; selectivity ratio [16]: 6; selectivity ratio [17]: 0.4; selectivity ratio [18]: 1.5; selectivity ratio [19]: 0.4; hemolysis at 1 h, 7.8 ug/ml [24]: 7.9%; hemolysis at 1 h, 31.3 ug/ml [25]: 32.6%; hemolysis at 1 h, 62.5 ug/ml [26]: 39.5%
N=C(N)N/N=C/c1ccc(-c2cccc(/C=N/NC(=N)N)c2)cc1 | 1.95 to 3.9 (≈ 6.05 to 12.1 µM) | 3.9 (≈ 12.1 µM) | 3.9 (≈ 12.1 µM) | > 31.3 | 3.9 (≈ 12.1 µM) | 7.8 (≈ 24.2 µM) | > 31.3 | 3.9 (≈ 12.1 µM) | 1.95 (≈ 6.05 µM) | 1.95 (≈ 6.05 µM) | > 31.3 | 7.8 (≈ 24.2 µM) | 7.8 (≈ 24.2 µM) | 5.3 (≈ 16.4 µM) | 2.9 (≈ 9 µM) | 0 | 3.8 | 0 | 1.1 | 1.2 | hemolysis at 1 h, 7.8 ug/ml [24]: 2.3%; hemolysis at 1 h, 31.3 ug/ml [25]: 3.8%; hemolysis at 1 h, 62.5 ug/ml [26]: 13.1%
